ChEMBL document CHEMBL1152560, “Substituted 2-arylbenzothiazoles as kinase inhibitors: hit-to-lead optimization” (Bioorg Med Chem, 2009)

Columns and labels:
[1] = target: Death-associated protein kinase 1 (Homo sapiens) (UniProt P53355); test: Residual activity of DAPK1 at 0.1 uM by microplate scintillation counting
[2] = target: Mitogen-activated protein kinase 9 (Homo sapiens) (UniProt P45984); test: Residual activity of JNK2 at 0.1 uM by microplate scintillation counting
[3] = target: Serine/threonine-protein kinase MARK2 (Homo sapiens) (UniProt Q7KZI7); test: Residual activity of MARK2 at 0.1 uM by microplate scintillation counting
[4] = target: Dual specificity mitogen-activated protein kinase kinase 1 (Homo sapiens) (UniProt Q02750); test: Residual activity of wild type MEK1 at 0.1 uM by microplate scintillation counting
Chain of Dual specificity mitogen-activated protein kinase kinase 1 (Homo sapiens) (Q02750 whole entry): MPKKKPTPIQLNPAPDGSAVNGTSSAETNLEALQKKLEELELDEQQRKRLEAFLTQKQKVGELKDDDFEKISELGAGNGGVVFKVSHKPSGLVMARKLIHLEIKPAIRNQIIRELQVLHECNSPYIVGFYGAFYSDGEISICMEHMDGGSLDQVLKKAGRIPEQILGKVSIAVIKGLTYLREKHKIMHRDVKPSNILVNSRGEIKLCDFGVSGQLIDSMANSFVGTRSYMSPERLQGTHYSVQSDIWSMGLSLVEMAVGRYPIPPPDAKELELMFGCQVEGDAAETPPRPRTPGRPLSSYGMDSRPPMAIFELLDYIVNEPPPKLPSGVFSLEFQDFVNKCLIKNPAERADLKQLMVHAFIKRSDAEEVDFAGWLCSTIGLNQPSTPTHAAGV

[5] = target: T1, Serine/threonine-protein kinase NLK (Homo sapiens) (UniProt Q9UBE8); test: Residual activity of NLK at 1 uM by microplate scintillation counting
T1 sequence (whole entry): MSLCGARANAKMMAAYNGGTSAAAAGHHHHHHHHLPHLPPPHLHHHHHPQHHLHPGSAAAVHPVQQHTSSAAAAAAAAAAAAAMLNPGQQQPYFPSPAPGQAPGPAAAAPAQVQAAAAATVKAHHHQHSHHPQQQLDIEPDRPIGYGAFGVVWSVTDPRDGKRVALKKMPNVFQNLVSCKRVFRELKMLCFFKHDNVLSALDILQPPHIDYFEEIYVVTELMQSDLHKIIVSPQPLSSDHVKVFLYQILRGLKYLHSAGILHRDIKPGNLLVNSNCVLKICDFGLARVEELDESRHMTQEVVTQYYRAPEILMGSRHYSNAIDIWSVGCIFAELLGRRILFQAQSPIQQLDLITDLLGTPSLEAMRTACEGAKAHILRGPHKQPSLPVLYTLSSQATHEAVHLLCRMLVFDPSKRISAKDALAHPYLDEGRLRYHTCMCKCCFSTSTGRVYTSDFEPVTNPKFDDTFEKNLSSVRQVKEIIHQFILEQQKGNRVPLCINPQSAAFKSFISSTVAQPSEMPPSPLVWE

[6] = target: Serine/threonine-protein kinase PLK1 (Homo sapiens) (UniProt P53350); test: Residual activity of PLK1 at 1 uM by microplate scintillation counting
Chain of Serine/threonine-protein kinase PLK1 (Homo sapiens) (P53350 whole entry): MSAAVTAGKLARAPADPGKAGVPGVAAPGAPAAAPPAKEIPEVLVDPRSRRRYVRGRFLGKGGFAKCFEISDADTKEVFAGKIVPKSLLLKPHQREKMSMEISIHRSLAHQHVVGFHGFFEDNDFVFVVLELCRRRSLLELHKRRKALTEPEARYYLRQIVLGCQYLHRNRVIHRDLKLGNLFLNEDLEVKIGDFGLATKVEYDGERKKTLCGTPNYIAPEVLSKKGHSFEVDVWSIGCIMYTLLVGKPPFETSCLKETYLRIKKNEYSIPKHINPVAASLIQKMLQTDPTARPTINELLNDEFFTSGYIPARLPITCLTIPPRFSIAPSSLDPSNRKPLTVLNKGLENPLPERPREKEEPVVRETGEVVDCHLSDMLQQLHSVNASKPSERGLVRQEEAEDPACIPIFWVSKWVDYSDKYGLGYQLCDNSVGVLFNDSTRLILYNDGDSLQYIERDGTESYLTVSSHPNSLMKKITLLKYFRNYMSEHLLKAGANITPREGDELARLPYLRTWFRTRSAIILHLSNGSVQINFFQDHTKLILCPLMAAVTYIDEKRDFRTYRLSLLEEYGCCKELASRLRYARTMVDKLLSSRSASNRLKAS

[7] = target: Ribosomal protein S6 kinase beta-2 (Homo sapiens) (UniProt Q9UBS0); test: Residual activity of S6Kbeta at 1 uM by microplate scintillation counting
Chain of Ribosomal protein S6 kinase beta-2 (Homo sapiens) (Q9UBS0 whole entry): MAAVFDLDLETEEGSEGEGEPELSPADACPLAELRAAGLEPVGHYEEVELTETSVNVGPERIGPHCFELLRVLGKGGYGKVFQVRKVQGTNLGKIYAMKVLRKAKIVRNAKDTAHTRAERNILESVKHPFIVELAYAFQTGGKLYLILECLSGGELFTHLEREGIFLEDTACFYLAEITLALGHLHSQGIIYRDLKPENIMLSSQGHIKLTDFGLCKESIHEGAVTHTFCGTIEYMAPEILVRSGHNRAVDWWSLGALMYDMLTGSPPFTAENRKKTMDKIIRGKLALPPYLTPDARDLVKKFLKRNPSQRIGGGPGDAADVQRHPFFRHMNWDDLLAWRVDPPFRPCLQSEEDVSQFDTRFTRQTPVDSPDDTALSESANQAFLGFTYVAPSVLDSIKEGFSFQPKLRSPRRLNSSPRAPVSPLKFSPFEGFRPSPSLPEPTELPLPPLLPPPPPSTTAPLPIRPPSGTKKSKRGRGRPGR

[8] = target: Tyrosine-protein kinase Fes/Fps (Homo sapiens) (UniProt P07332); test: Residual activity of FES at 10 uM by microplate scintillation counting
Chain of Tyrosine-protein kinase Fes/Fps (Homo sapiens) (P07332 whole entry): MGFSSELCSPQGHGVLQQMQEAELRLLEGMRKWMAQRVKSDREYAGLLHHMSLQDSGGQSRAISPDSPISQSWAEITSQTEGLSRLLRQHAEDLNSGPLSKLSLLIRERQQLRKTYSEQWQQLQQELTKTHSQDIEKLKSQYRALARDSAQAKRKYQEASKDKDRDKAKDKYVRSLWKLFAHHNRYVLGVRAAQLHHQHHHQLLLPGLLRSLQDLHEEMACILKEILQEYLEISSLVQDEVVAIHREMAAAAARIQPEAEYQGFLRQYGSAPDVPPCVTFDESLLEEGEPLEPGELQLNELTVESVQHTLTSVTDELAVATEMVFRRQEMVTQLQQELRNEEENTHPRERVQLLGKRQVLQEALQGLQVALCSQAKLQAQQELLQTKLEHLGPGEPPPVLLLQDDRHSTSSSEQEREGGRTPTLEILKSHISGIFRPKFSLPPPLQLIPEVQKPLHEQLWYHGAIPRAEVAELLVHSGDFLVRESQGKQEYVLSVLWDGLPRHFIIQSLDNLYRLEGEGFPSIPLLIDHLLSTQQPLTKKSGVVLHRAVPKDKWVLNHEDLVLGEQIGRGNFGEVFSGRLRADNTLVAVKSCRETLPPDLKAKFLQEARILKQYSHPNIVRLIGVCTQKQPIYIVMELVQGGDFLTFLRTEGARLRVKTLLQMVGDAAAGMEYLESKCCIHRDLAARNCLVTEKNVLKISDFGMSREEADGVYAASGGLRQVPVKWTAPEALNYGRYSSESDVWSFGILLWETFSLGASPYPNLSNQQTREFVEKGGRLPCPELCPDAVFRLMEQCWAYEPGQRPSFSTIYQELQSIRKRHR

[9] = target: T2, Inhibitor of nuclear factor kappa-B kinase subunit epsilon (Homo sapiens) (UniProt Q14164); test: Residual activity of IKKepsilon at 10 uM by microplate scintillation counting
T2 sequence (whole entry): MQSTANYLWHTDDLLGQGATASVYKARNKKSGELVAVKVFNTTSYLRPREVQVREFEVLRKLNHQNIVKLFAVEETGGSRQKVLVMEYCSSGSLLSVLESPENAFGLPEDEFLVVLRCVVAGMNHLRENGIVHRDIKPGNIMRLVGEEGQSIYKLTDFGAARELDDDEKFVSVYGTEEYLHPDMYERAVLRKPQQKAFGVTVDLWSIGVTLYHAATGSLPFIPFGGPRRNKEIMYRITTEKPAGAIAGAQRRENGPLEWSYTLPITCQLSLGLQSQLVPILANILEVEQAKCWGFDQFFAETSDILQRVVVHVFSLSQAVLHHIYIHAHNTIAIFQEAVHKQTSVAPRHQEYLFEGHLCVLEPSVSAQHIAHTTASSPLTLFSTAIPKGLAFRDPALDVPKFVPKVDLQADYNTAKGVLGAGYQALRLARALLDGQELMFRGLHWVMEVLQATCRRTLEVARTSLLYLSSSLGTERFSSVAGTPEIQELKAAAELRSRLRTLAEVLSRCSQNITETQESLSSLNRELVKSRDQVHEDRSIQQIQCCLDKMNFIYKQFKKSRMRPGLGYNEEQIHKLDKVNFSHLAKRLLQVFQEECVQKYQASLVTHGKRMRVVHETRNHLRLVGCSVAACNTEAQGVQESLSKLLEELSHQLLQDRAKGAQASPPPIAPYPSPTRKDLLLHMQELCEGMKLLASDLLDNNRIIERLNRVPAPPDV

[10] = target: T3, Serine/threonine-protein kinase Nek3 (Homo sapiens) (UniProt P51956); test: Residual activity of NEK3 at 10 uM by microplate scintillation counting
T3 sequence (whole entry): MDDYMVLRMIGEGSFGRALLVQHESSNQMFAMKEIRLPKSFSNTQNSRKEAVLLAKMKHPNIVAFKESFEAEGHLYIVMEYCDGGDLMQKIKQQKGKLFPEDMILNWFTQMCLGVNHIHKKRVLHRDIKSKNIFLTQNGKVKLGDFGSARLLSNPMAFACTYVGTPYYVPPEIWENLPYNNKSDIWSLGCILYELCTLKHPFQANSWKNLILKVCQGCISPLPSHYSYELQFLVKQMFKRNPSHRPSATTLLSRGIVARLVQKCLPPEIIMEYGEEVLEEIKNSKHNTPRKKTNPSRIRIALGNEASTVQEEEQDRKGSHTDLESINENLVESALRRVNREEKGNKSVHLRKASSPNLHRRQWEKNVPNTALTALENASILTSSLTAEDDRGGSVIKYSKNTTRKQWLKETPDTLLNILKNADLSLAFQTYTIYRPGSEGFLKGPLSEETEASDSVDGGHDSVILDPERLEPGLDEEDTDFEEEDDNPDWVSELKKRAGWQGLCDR

[11] = target: Serine/threonine-protein kinase PAK 4 (Homo sapiens) (UniProt O96013); test: Residual activity of PAK4 at 10 uM by microplate scintillation counting
Chain of Serine/threonine-protein kinase PAK 4 (Homo sapiens) (O96013 whole entry, looked up): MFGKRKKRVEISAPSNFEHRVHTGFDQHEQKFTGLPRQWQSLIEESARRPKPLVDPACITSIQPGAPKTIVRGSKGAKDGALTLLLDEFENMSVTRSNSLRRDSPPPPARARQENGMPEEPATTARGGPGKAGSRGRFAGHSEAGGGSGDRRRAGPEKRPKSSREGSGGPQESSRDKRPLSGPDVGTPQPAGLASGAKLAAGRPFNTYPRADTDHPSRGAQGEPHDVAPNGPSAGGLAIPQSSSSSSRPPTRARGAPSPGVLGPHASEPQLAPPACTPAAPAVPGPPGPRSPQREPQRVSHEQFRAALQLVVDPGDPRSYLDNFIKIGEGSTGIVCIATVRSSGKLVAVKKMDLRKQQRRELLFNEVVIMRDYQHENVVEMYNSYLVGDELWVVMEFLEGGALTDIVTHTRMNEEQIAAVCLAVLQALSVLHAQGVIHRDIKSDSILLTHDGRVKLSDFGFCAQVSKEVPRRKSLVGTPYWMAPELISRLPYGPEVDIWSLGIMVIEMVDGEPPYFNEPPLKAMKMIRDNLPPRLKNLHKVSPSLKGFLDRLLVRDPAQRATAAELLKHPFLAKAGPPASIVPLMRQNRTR

[12] = target: Protein kinase C beta type (Homo sapiens) (UniProt P05771); test: Residual activity of PKCbeta1 at 10 uM by microplate scintillation counting
Chain of Protein kinase C beta type (Homo sapiens) (P05771 2-671 limits assumed): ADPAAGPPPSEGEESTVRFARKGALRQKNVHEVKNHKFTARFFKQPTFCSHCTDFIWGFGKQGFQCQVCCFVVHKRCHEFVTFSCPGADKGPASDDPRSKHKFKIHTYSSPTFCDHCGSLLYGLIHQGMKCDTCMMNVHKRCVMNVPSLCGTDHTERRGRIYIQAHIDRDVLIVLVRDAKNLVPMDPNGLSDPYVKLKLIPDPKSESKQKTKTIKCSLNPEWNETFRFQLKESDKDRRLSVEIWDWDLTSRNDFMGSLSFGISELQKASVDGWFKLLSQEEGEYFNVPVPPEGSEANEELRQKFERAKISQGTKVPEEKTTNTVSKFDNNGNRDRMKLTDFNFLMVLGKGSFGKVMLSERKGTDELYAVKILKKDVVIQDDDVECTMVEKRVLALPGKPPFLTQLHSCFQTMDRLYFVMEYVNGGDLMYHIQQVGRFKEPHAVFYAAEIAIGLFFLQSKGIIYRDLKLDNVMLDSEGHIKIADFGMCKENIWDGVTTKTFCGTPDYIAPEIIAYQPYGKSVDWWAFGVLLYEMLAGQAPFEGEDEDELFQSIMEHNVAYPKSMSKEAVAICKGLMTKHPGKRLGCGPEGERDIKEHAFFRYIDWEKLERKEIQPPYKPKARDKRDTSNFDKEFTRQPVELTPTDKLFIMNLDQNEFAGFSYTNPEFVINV

[13] = target: Protein kinase C theta type (Homo sapiens) (UniProt Q04759); test: Residual activity of PKCtheta at 10 uM by microplate scintillation counting
[14] = target: RAC-alpha serine/threonine-protein kinase (Homo sapiens) (UniProt P31749); test: Residual activity of AKT1 at 0.1 uM by microplate scintillation counting
[15] = target: SRSF protein kinase 2 (Homo sapiens) (UniProt P78362); test: Residual activity of SRPK2 at 10 uM by microplate scintillation counting
Chain of SRSF protein kinase 2 (Homo sapiens) (P78362 whole entry, looked up): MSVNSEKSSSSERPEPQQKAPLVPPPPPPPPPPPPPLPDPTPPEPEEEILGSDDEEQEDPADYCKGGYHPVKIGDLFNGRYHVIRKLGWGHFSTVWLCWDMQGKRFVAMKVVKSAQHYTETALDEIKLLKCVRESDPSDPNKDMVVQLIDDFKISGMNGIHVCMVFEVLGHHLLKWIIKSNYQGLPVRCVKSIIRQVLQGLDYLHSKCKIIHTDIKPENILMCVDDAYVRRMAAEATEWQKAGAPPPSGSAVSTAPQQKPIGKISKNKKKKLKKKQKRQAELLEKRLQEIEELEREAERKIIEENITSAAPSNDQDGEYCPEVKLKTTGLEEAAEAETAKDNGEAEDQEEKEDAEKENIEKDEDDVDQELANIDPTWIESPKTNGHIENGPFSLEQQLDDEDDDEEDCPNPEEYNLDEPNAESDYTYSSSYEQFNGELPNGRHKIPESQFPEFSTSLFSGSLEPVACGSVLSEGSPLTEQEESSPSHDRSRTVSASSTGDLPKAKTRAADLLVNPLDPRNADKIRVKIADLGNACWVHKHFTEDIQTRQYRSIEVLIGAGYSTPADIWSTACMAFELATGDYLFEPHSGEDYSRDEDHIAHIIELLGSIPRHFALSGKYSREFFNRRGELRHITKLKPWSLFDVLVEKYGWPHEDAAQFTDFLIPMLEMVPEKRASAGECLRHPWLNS

Chain of Mitogen-activated protein kinase 9 (Homo sapiens) (P45984 whole entry, looked up): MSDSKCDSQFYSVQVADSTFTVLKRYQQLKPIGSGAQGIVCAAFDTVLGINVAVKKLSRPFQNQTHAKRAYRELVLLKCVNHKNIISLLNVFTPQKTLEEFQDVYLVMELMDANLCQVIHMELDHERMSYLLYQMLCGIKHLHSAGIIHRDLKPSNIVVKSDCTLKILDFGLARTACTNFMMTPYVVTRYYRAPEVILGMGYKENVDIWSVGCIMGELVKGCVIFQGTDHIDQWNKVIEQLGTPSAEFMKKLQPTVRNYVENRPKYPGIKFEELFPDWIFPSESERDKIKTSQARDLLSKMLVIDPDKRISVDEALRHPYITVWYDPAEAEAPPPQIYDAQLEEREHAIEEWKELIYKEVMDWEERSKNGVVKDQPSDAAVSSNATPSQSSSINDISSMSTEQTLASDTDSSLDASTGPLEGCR

| residual activity [2] [%] | residual activity [3] [%] | residual activity [4] [%] | residual activity [5] [%] | residual activity [6] [%] | residual activity [7] [%] | residual activity [8] [%] | residual activity [9] [%] | residual activity [10] [%] | residual activity [11] [%] | residual activity [12] [%] | residual activity [13] [%] | residual activity [14] [%] | residual activity [15] [%] | Structure (SMILES) | residual activity [1] [%] |
| --- | --- | --- | --- | --- | --- | --- | --- | --- | --- | --- | --- | --- | --- | --- | --- |
| 89 | 90 | 101 | 96 | 88 | 54 | 208 | 99 | 154 | 91 | 73 | 64 | 91 | 128 | COc1cc2c(Oc3ccc(-c4nc5ccccc5s4)cc3)ncnc2cc1OCCCN1CCCC1 | 86 |
| 108 | 82 | 87 | 113 | 100 | 56 | 153 | 101 | 145 | 55 | 81 | 96 | 102 | 115 | COc1cc2c(Oc3ccc(-c4nc5ccccc5s4)cc3)ncnc2cc1OCCCN1CCN(C)CC1 | 73 |
| 103 | 87 | 79 | 113 | 97 | 41 | 112 | 76 | 132 | 50 | 57 | 87 | 100 | 100 | COc1cc2c(Oc3ccc(-c4nc5ccccc5s4)cc3F)ncnc2cc1OCCCN1CCN(C)CC1 | 80 |
